Patent publication US8802826B2, “Anti-clusterin antibodies and antigen binding fragments and their use to reduce tumor volume” (Alethia Biotherapeutics Inc., priority 2009, dated 2014)

Columns and labels:
[1] = system: DU145 human prostate cancer cell line; assay: DU145 prostate tumor xenograft; type: in vivo, SCID mice; conditions: 5 mg/kg i.p. twice per week
Description: FIG. 6. Treatment of prostate cancer tumors with h16B5 reduces the growth of the tumors and increases their response to chemotherapy. DU145 prostate cancer cells (2×10^6) were implanted s.c. into SCID mice and allowed to grow until the tumor sizes were approximately 100 mm3. Tumors were measured bi-weekly with a digital caliper and tumor volumes were calculated as L×W×H. Each group contained 8 animals that were randomized prior to the beginning off the treatments. The results were expressed as mm^3±SEM. The P values were calculated using the Student's T test.
These studies were performed to measure the in vivo efficacy of h16B5 in models of human cancer. Antisense oligonucleotides and small interfering RNAs targeting clusterin have been reported to induce apoptosis and chemosensitivity in vitro in prostate cancer xenografts. The model system that was used comprised the DU145 human prostate cancer cell line that is androgen-insensitive and represents one of the most well characterized models for this disease. Thus, 2 million cells were implanted sub-cutaneously into the flanks of SCID mice and the tumors were allowed to grow to approximately 100 mm^3. Starting on day 1, h16B5 was injected intra-peritoneally (i.p.) at a dosage of 5 mg/kg and from day 4, taxotere (TxT) was injected i.p. at a dosage of 10 mg/kg. […]

[2] = biological target: T1, human clusterin (recombinant monomeric clusterin) (Homo sapiens, UniProt P10909); assay: BIAcore kinetic analysis of antibody binding to immobilized clusterin
T1 construct: Recombinant monomeric clusterin was immobilized on a CM3 chip with normal amine coupling method
Description: The purpose of these investigations is to determine the kinetics parameters of anti-clusterin antibodies. In particular, to determine whether the humanization of the 16B5 and 21B12 anti-clusterin monoclonal antibody affects the kinetics parameters of its binding to human clusterin. To this end, a kinetic analysis method was developed using the BIAcore 3000. Human clusterin was immobilized on a sensor chip. Full length antibodies or Fab fragments were injected and allowed to interact with the immobilized clusterin. This example described the exemplary antibody 16B5 but the 21B12 exemplary antibody was prepared and tested in a similar manner.
HBST (10 mM Hepes pH 7.4, 135 mM NaCl, 3.4 mM EDTA, 0.005% Tween 20) was used as running buffer for all BIAcore experiments. Recombinant monomeric clusterin was immobilized on a CM3 chip with normal amine coupling method at a flow of 5 μl/min. Surface was activated with 35 μl of a mixture of 50 mM NHS/0.2M EDC. Clusterin in 10 mM Na-acetate pH 4.5 was injected until a desired amount was captured (below 60RU). Unreacted esters were deactivated with 35 μL1 of 1M ethanolamine hydrochloride-NaOH pH8.5. A control surface was prepared by injecting NHS/EDC and ethanolamine in the same manner.
Kinetics analysis was conducted at a flow of 50 μl/min. Full length antibodies (mouse or humanized) or Fab were diluted in HBST. Concentration range was from 1.953-31.25 nM for the full length antibodies and 15.625-250 nM for the Fab. Each concentration was injected over the clusterin and a control surface for 5 min followed with a 5 min dissociation wash. The clusterin surface was regenerated between each antibody injection with 50 μl of 20 mM HCl.

[3] = system: PC-3 prostate cancer cells; assay: PC-3 prostate tumor xenograft; type: in vivo, SCID mice
Description: PC-3 prostate cancer cells (2×10^6) were implanted s.c. into SCID mice and allowed to grow until the tumor sizes were approximately 100 mm^3. Tumors were measured bi-weekly with a digital caliper and tumor volumes were calculated as L×W×H. Each group contained 8 animals that were randomized prior to the beginning off the treatments. The results were expressed as mm^3±SEM.
A second prostate cancer model study was conducted in a different tumor model by implanting PC-3 prostate cancer cells. PC-3 cells are also hormone-insensitive but are documented as being slightly more invasive than the DU145 cells. As was described above, the cells were implanted sub-cutaneously in SCID mice and treatments were initiated when the tumors reached a volume of approximately 100 mm^3 (designated day 1). The h16B5 injections were administered i.p. on day 1 at 5 mg/kg and continued twice per week thereafter whereas a single TxT injection at 10 mg/kg was administered i.p. on day 5.

DU145 cells = assay: growth in Matrigel, DU145; type: cell-based, human; conditions: 8 μg/mL, up to 3 weeks
Description: FIG. 5. Inhibition of h16B5 reduces the invasiveness of human prostate cancer cells. The bottom of 12-well plates was covered with 200 μL Growth factor reduced matrigel (Becton Dickinson). Cells (2.5×10^4) were resuspended in 200 μL matrigel, which was layered on top of this, and finally 500 μL of cell specific growth medium was added on top of the matrigel. h16B5 was added to every layer of matrigel as well as the medium in a concentration of 8 μg/mL. Plates were incubated at 37° C. for up to 3 weeks during which the growth medium (+/−h16B5) was replenished weekly. The arrows indicate the areas of epithelial-like cells.
We then determined whether other cell lines such as the human prostate PC3 and DU145 cell lines, which secrete various levels of endogenous clusterin, could be affected in their invasive behavior and growth by the h16B5.

T1 sequence (P10909 23-449): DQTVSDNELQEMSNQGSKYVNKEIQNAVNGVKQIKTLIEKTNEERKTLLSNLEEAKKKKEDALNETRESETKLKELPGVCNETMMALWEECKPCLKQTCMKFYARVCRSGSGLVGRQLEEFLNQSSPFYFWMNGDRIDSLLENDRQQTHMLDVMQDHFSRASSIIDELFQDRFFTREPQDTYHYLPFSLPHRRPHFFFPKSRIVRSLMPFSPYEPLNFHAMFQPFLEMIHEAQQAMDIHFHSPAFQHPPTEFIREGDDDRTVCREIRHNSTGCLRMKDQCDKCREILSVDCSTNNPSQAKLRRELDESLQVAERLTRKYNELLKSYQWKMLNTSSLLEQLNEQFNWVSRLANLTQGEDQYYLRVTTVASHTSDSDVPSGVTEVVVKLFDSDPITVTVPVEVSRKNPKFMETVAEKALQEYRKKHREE

## h16B5: humanized anti-clusterin IgG2 antibody, heavy chain SEQ ID NO.:9 and light chain SEQ ID NO.:10
[1]
  growth of the (primary) tumors compared to the control: significantly reduced
[2]; full length vs full length, Fab vs Fab
  kinetics parameters compared with the parent mouse antibody: very similar
[2]; stated in words
  KD of the interaction with immobilized human clusterin: low nM range
[3]; 5 mg/kg i.p. twice per week
  increase in overall survival: 47%
[3]; day 43 (no remaining animals in the control group)
  mice remaining alive: greater than 60%
[3]; day 43, 5 mg/kg i.p. twice per week
  reduction in average tumor size compared to the control group: 37%
[3]; h16B5 in combination with TxT
  survival of the animals: extended the survival
DU145 cells
  sphere-like structures in Matrigel: smaller and fewer in number
